Assay results reported in US20220315578A1, “BRD9 BIFUNCTIONAL DEGRADERS AND THEIR METHODS OF USE” (NOVARTIS AG, priority 2019, published 2022).

Target: T1, BRD9-GFP (Homo sapiens, UniProt Q9H8M2)
T1 construct: CHYSEL (2A cis-acting hydrolase element) remnant after GFP; mCherry is split off as a separate protein (C); expressed in transfected cells; host or cells: HEK293A cells (Invitrogen R70507), lentiviral transduction with pLenti6-BRD9-GFP-CHYSEL-mCherry, blasticidin selection
T1 sequence (Q9H8M2 1-597): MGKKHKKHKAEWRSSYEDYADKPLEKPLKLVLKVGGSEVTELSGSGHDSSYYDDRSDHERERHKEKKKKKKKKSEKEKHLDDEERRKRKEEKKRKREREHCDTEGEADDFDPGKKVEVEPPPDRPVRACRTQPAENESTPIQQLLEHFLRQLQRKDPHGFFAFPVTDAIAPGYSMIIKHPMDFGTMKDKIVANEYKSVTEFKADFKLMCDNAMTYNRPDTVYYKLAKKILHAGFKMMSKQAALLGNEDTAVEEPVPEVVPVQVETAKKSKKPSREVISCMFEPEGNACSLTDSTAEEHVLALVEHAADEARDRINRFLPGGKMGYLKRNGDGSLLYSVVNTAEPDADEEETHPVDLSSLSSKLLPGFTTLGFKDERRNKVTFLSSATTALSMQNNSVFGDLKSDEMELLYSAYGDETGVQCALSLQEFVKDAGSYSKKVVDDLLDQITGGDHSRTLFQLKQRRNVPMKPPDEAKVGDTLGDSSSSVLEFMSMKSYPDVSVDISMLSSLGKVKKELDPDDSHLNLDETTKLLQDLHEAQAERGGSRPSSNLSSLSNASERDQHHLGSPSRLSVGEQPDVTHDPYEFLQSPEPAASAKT
Experiment: BRD9-GFP protein abundance flow cytometry assay in HEK293A cells
Format: cell-based
Details: HEK293A-BRD9-GFP-CHYSEL-mCherry cells; for BRD9 Deg Amax %: 24 h, % protein remaining at the concentration at which maximum degradation is seen; for DC50: 24 h at 37° C., 10-point 1:3 dilution, concentration at which 50% maximal degradation was observed
Method: Compounds of the invention were tested in the following cellular assays. The terms in Table 1 are defined as follows: DC50 refers to the concentration at which 50% maximal degradation was observed; deg Amax is the extent of degradation and the value refers to the % protein remaining at the concentration at which maximum degradation is seen.
BRD9-GFP protein abundance flow cytometry assay in HEK293A cells: Degradation of BRD9 was measured in HEK293A cells expressing BRD9-GFP and mCherry from a stably integrated second generation bicistronic BRD9-GFP-CHYSELmCherry construct. Reduction of the GFP signal measured by flow cytometry served as readout for BRD9 degradation after degrader treatment.
The bicistronic BRD9-GFP-CHYSEL-mCherry construct is based on a pLenti6-DEST vector backbone where a GFP-CHYSEL-mCherry cassette was synthesized and inserted downstream of the DEST cassette by Gibson assembly resulting in the new gateway compatible vector pLenti6-DEST-GFP-CHYSEL-mCherry to allow Gateway cloning with pENTR221-BRD9 (w/o ATG) to obtain the final sensor construct pLenti6-BRD9-GFP-CHYSEL-mCherry.
HEK293 Å-BRD9-GFP-CHYSEL-mCherry sensor cells were generated by lentiviral vector transduction using the pLenti6-BRD9-GFP-CHYSEL-mCherry sensor construct described before. […] The mix was incubated for another 20 min at RT and then added to 1 ml of a freshly prepared suspension of HEK293FT cells in a well of a 6-well plate (concentration 1.2×10^6 cells/ml). 1 day after transfection, the medium was replaced with 1.5 ml of complete growth medium (DMEM high Glucose+10% FCS+1% L-Glutamine+1% NEAA+1% NaPyr.). 48 h post transfection supernatant containing viral transducing particles was collected and frozen at −80° C. […] Infection was performed with […] of collected supernatant containing viral transducing particles in 1 ml medium including 8 μg/ml polybrene. 24 h post infection, stably transfected cells were selected with blasticidin at a concentration of 8 μg/ml.
Stable HEK293 Å-BRD9-GFP-CHYSEL-mCherry cells were maintained in complete growth medium (DMEM high Glucose+10% FCS+1% L-Glutamine+1% NEAA+1% NaPyr.) with passaging performed twice per week. On Day 0, HEK293 Å-BRD9-GFP-CHYSEL-mCherry cells were seeded at 10,000 cells/well in a 96-well microtiter plate in […] complete medium. On Day 1, cells were treated in duplicate with 10-point 1:3 dilution series of compound using the HP D300 Digital Dispenser (Tecan). DMSO concentrations were normalized across the plate to 0.1%. On Day 2, after 24 h of incubation at 37° C., treatment media was discarded, cells rinsed with 100 ul/well PBS and then detached using 40 ul trypsin/well for 5 min. Trypsin was neutralized with 100 ul/well PBS+20% FCS). Flow cytometry was performed on the samples using the Beckman Coulter CytoFLEX flow cytometer. Cell identification was then performed using forward (FSC) vs. side scatter (SSC) plots. Single cell discrimination is performed using FSC-Width (FSC-W) vs. FSC-Height (FSC-H) plots. Median GFP/mCherry ratio values for 5,000 single cells are used to determine BRD9 levels. Median GFP/mCherry ratio values from HEK293 Å-mCherry are used as a background signal and thus defining 0% BRD9 signal. Median GFP/mCherry ratio values from DMSO treated HEK293 Å-BRD9-GFP-CHYSEL-mCherry are used to define 100% BRD9 signal for subsequent DC50 curves (concentration at 50% BRD9 degradation). Concentration response curves plotting relative reduction of the GFP/mCherry ratio signal (measured by flow cytometry) versus 10 compound concentrations (starting concentration […], 3 fold dilution steps) of the compounds allowed generation of DC50 values. Data is shown in Tables 2 and 3, in which, DC50 refers to the concentration at which 50% maximal degradation was observed; deg Amax is the extent of degradation and the value refers to the % protein remaining at the concentration at which maximum degradation is seen.

COc1cc(-c2cn(C)c(=O)c(C)c2C)ccc1CN1CCN(CC2CCN(C(=O)c3ccc(Cl)c(N4CCC(=O)NC4=O)c3)CC2)CC1 [Compound A14, 1-(2-Chloro-5-(4-((4-(2-methoxy-4-(1,4,5-trimethyl-6-oxo-1,6-dihydropyridin-3-yl)benzyl)piperazin-1-yl)methyl)piperidine-1-carbonyl)phenyl)dihydropyrimidine-2,4(1H,3H)-dione]
BRD9 Deg Amax %: 33.06%
DC50: 3 nM

COc1cc(-c2cn(C)c(=O)c(C)c2C)ccc1CN1CCN(CC2CCN(C(=O)c3cccc(N4CCC(=O)NC4=O)c3)CC2)CC1 [Compound A15, 1-(3-(4-((4-(2-Methoxy-4-(1,4,5-trimethyl-6-oxo-1,6-dihydropyridin-3-yl)benzyl)piperazin-1-yl)methyl)piperidine-1-carbonyl)phenyl)dihydropyrimidine-2,4(1H,3H)-dione]
BRD9 Deg Amax %: 29.47%
DC50: 49 nM

COc1cc(-c2cc(C)c(=O)n(C)c2)c(OC)cc1CN1CCC(OC2CCN(C(=O)c3cccc(N4CCC(=O)NC4=O)c3)CC2)CC1 [Compound A16, 1-(3-(4-((1-(4-(1,5-Dimethyl-6-oxo-1,6-dihydropyridin-3-yl)-2,5-dimethoxybenzyl)piperidin-4-yl)oxy)piperidine-1-carbonyl)phenyl)dihydropyrimidine-2,4(1H,3H)-dione]
BRD9 Deg Amax %: 6.37%
DC50: 32 nM

COc1ccc(C(=O)N2CCC(CN3CCC(Oc4ccc(-c5cn(C)c(=O)c6cnccc56)cc4Cl)CC3)CC2)cc1N1CCC(=O)NC1=O [Compound A17, 1-(5-(4-((4-(2-Chloro-4-(2-methyl-1-oxo-1,2-dihydro-2,7-naphthyridin-4-yl)phenoxy)piperidin-1-yl)methyl)piperidine-1-carbonyl)-2-methoxyphenyl)dihydropyrimidine-2,4(1H,3H)-dione]
BRD9 Deg Amax %: 32.92%
DC50: 11 nM

COc1cc(-c2cn(C)c(=O)c(C)c2C)c(OC)cc1CN1CCC(OC2CCN(C(=O)c3ccc(Cl)c(N4CCC(=O)NC4=O)c3)CC2)CC1 [Compound A18, 1-(2-Chloro-5-(4-((1-(2,5-dimethoxy-4-(1,4,5-trimethyl-6-oxo-1,6-dihydropyridin-3-yl)benzyl)piperidin-4-yl)oxy)piperidine-1-carbonyl)phenyl)dihydropyrimidine-2,4(1H,3H)-dione]
BRD9 Deg Amax %: 11.83%
DC50: 15 nM

COc1cc(-c2cn(C)c(=O)c(C)c2C)cc(OC)c1OCC1CCN(CC2CCN(C(=O)c3ccc(Cl)c(N4CCC(=O)NC4=O)c3)CC2)CC1 [Compound A19, 1-(2-Chloro-5-(4-((4-((2,6-dimethoxy-4-(1,4,5-trimethyl-6-oxo-1,6-dihydropyridin-3-yl)phenoxy)methyl)piperidin-1-yl)methyl)piperidine-1-carbonyl)phenyl)dihydropyrimidine-2,4(1H,3H)-dione]
BRD9 Deg Amax %: 17.02%
DC50: 3 nM

COc1cc(-c2cn(C)c(=O)c3cnccc23)c(OC)cc1OC1CCN(CC2CCN(C(=O)c3ccc(OC)c(N4CCC(=O)NC4=O)c3)CC2)CC1 [Compound A20, 1-(5-(4-((4-(2,5-Dimethoxy-4-(2-methyl-1-oxo-1,2-dihydro-2,7-naphthyridin-4-yl)phenoxy)piperidin-1-yl)methyl)piperidine-1-carbonyl)-2-methoxyphenyl)dihydropyrimidine-2,4(1H,3H)-dione]
BRD9 Deg Amax %: 9.75%
DC50: 14 nM

COc1cc(-c2cn(C)c(=O)c(C)c2C)cc(OC)c1CCN1CCC(OC2CCN(C(=O)c3ccc(Cl)c(N4CCC(=O)NC4=O)c3)CC2)CC1 [Compound A21, 1-(2-Chloro-5-(4-((1-(2,6-dimethoxy-4-(1,4,5-trimethyl-6-oxo-1,6-dihydropyridin-3-yl)phenethyl)piperidin-4-yl)oxy)piperidine-1-carbonyl)phenyl)dihydropyrimidine-2,4(1H,3H)-dione]
BRD9 Deg Amax %: 12.12%
DC50: 1 nM

COc1cc(-c2cn(C)c(=O)c(C)c2C)cc(OC)c1CCN1CCC(OC2CCN(C(=O)c3cccc(N4CCC(=O)NC4=O)c3)CC2)CC1 [Compound A22, 1-(3-(4-((1-(2,6-Dimethoxy-4-(1,4,5-trimethyl-6-oxo-1,6-dihydropyridin-3-yl)phenethyl)piperidin-4-yl)oxy)piperidine-1-carbonyl)phenyl)dihydropyrimidine-2,4(1H,3H)-dione]
BRD9 Deg Amax %: 11.18%
DC50: 6 nM

COc1cc(-c2cn(C)c(=O)c3cnccc23)c(OC)cc1CN1CCN(CC2CCN(C(=O)c3ccc(OC)c(N4CCC(=O)NC4=O)c3)CC2)CC1 [Compound A23, 1-(5-(4-((4-(2,5-Dimethoxy-4-(2-methyl-1-oxo-1,2-dihydro-2,7-naphthyridin-4-yl)benzyl)piperazin-1-yl)methyl)piperidine-1-carbonyl)-2-methoxyphenyl)dihydropyrimidine-2,4(1H,3H)-dione]
BRD9 Deg Amax %: 10.64%
DC50: 16 nM

COc1ccc(C(=O)N2CCC(CN3CCN(Cc4c(OC)cc(-c5cn(C)c(=O)c6cnccc56)cc4OC)CC3)CC2)cc1N1CCC(=O)NC1=O [Compound A24, 1-(5-(4-((4-(2,6-Dimethoxy-4-(2-methyl-1-oxo-1,2-dihydro-2,7-naphthyridin-4-yl)benzyl)piperazin-1-yl)methyl)piperidine-1-carbonyl)-2-methoxyphenyl)dihydropyrimidine-2,4(1H,3H)-dione]
BRD9 Deg Amax %: 13.31%
DC50: 27 nM

COc1cc(-c2cn(C)c(=O)c3cnccc23)cc(OC)c1CCN1CCC(OC2CCN(C(=O)COc3ccc(N4CCC(=O)NC4=O)cc3)CC2)CC1 [Compound A25, 1-(4-(2-(4-((1-(2,6-Dimethoxy-4-(2-methyl-1-oxo-1,2-dihydro-2,7-naphthyridin-4-yl)phenethyl)piperidin-4-yl)oxy)piperidin-1-yl)-2-oxoethoxy)phenyl)dihydropyrimidine-2,4(1H,3H)-dione]
BRD9 Deg Amax %: 18.22%
DC50: 10 nM

COc1cc(-c2cn(C)c(=O)c3cnccc23)c(OC)cc1/C=C/C(=O)N1CCC(OC2CCN(C(=O)c3ccc(OC)c(N4CCC(=O)NC4=O)c3)CC2)CC1 [Compound A27, (E)-1-(5-(4-((1-(3-(2,5-dimethoxy-4-(2-methyl-1-oxo-1,2-dihydro-2,7-naphthyridin-4-yl)phenyl)acryloyl)piperidin-4-yl)oxy)piperidine-1-carbonyl)-2-methoxyphenyl)dihydropyrimidine-2,4(1H,3H)-dione]
BRD9 Deg Amax %: 12.02%
DC50: 49 nM
